From patent US6803186B2, “Compositions and methods for increasing amino acid absorption in mammals” (The IAMS Company, priority 2001, dated 2004)
“And” between values parts separate entries of the source, which are not always exact repeats. Identical values can stand only once. Peptide text beside a SMILES is read from it.

What was measured:
MDCK cells = assay: Inhibition of H+-independent GlySar uptake by MDCK cells; type: cell-based, canine; settings: 1 mM peptide, 100 μM GlySar
Method: (§1) 5. Transport was initiated by replacing depletion medium with uptake medium (depletion medium adjusted to pH 6.0 or kept at pH 7.4) that contained 100 μM GlySar (at a specific activity of 5 μCi/mL, with [^3H]-GlySar supplying 2.88% of total GlySar substrate) and (or) 1 mM of inhibiting peptide.

canine PepT1 (cPepT1) [1] = biological target: T1, canine PepT1 (cPepT1) (Canis lupus familiaris, UniProt Q8WMX5); assay: Inhibition of H+-dependent 100 μM GlySar uptake by MDCK cells cultured in LHM; type: cell-based; settings: 100 μM extracellular substrate
T1 construct: endogenous in cells; host or cells: MDCK (Madin-Darby Canine Kidney) cells, whole-cell [3H]-GlySar uptake
T1 sequence (Q8WMX5 1-708): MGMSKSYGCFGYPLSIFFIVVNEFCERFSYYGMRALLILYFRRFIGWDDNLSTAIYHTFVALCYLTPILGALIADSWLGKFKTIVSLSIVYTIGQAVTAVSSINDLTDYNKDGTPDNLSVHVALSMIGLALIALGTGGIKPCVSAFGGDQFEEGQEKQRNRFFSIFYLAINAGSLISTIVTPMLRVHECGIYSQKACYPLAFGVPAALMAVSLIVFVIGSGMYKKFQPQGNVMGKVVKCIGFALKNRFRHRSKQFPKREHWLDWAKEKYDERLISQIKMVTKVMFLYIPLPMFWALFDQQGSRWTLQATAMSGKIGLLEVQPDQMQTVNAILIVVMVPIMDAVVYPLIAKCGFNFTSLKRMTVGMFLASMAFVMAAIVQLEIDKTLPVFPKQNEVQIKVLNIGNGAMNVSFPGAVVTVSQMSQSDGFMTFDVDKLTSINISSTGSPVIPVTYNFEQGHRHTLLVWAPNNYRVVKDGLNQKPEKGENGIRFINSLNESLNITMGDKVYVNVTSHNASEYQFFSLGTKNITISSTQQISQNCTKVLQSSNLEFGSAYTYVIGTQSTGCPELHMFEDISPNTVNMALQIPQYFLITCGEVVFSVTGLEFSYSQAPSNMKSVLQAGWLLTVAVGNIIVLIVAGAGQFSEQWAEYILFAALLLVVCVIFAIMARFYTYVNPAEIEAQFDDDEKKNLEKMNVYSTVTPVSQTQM

canine PepT1 (cPepT1) [2] = biological target: T1, canine PepT1 (cPepT1); assay: as above; type: cell-based; settings: for % inhibition of H+-dependent GlySar uptake: 1 mM extracellular substrate, 100 μM GlySar, pH 6.0, 30 min
Method: Characteristic hallmarks of low affinity H^+/peptide cotransport activity, classically defined using membrane vesicles of several species, and more recently by functional expression studies using human, rat, and rabbit PepT1 cDNA, is the recognition of some, but not all, β-lactam antibiotics. […] To determine whether MDCK cPepT1 activity shared these functional features, the uptake of 100 μM GlySar in the absence and presence of pH 7.5 and pH 6.0 buffer, and, in pH 6.0 buffers, the presence of 1 mM additional GlySar (self-inhibitor control), 3 mM Penicillin-G, 30 μM cefadroxil, or 3 mM cefadroxil was compared (FIG. 13).
Other hallmarks of PepT1 function are the decreased ability of Gly-containing peptides to inhibit GlySar, in proportion to their length, and sensitivity to inhibition by carnosine (β-Ala-His).
Accordingly, the following general regimen was used to perform a series of experiments that evaluated the relative abilities of candidate di-(primarily) and tri-peptides to inhibit GlySar uptake by endogenously expressed cPepT1 in MDCK cells:
1. Sixty thousand cells/well were plated into collagen-coated 24-well trays and cultured at 37° C. in an atmosphere of 95% air/5% CO2 in DMEM/10% FCS that contained antibiotics for 1 day.
2. The media was removed and cells were cultured in LHM/10% FCS/antibiotics for 1 day.
3. The media was removed and cells cultured in LHM/10% FCS (no antibiotics) for 20 h.
4. The media was removed and cells cultured for 30 min in air at 37° C. in depletion medium (25 mM Hepes/Tris (pH 7.5), 140 mM NaCl, 5.4 mM KCl, 1.8 mM CaCl2, 0.8 mM MgSO4, and 5 mM glucose, to normalize intracellular nutrient pools.
as §1
In total, 23 inhibitory peptides and 2 drug compounds were screened using this protocol.

canine PepT1 (cPepT1) [3] = biological target: T1, canine PepT1 (cPepT1); assay: Competitor substrate inhibition of [3H]-GlySar uptake by confluent MDCK cells (Example 1); type: cell-based; settings: for Glysylsarcosine uptake: extracellular pH 6.0, 10 mM competitor, 2.88 [3H]-glycylsarcosine, 30 min; for inhibition of H+-dependent uptake of GlySar: 10 mM competitor; for % inhibition of pH 6.0 uptake: pH 6.0, 10 mM competitor
Method: (§2) Potential expression of PepT1 transport activity (H^+-dependent, dipeptide inhibitable, low-affinity dipeptide transport) by confluent MDCK cells was evaluated using whole-cell transport techniques and glycylsarcosine (GlySar) as a model dipeptide substrate. Cells were seeded at 60,000 cells/cm^2 into 24-well trays that had been coated with rat tail collagen or poly-L-lysine and cultured ([…]:5% CO2 at 37° C.) for 3 d in media consisting of Dulbecco's Modified Eagle Medium/10% fetal calf serum/1% antimicrobial antibacterial medium. Absorption (pmols/mg protein) of [^3H]-glycyl-L-sarcosine (GlySar, 6 mCi/mL, Moravek Biochemicals, Brea, Calif.) was determined using the 24-well cluster tray method and representative scintillation counting. Before transport, cells were incubated at 37° C. for 30 min in 25 mM Hepes/Tris (pH 7.5), 140 mM NaCl, 5.4 mM KCl, 1.8 mM CaCl2, 0.8 mM MgSO4, and 5 mM glucose (uptake buffer) to normalize intracellular amino acid and peptide pools. Transport was initiated by the addition of 0.25 mL of uptake buffer that contained 2.88 μm GlySar. After 30 min of uptake at 37° C., transport was terminated by rapid washing of cells with 4×2 mL 4° C. uptake buffer. Cellular protein was precipitated with 10% trichloroacetic acid and the supernatant recovered and counted to determine radioactivity (^3H) content. Cellular protein was then solubilized in 0.2 N NaOH and 0.2% SDS and quantified by the Lowry procedure, using bovine serum albumin as a standard. The amount of H^+-dependent GlySar absorbed was calculated as the difference between uptake in pH 6.0 and pH 7.5 uptake buffers. The amount of competitor substrate-inhibitable GlySar uptake was calculated as the quotient of GlySar uptake in the absence and presence of 10 mM competitor substrate (dipeptide or amino acid) multiplied by 100%.

[4] = substrate: CN(CC(=O)O)C(=O)CN; assay: Characterization of GlySar uptake by MDCK cells (Km, pH gradient, time course); type: cell-based, canine; settings: 37.0 °C
Method: as §2, with “Transport was initiated by the addition of 0.25 mL of uptake buffer that contained 2.88 μm GlySar. After 30 min of uptake at 37° C., transport was terminated by rapid washing of cells with 4×2 mL 4° C. uptake buffer.” left out
To preliminarily characterize the kinetic parameters of peptide transport by MDCK cells, the uptake of GlySar in media that contained pH 6.0 and 0.00064, 0.0025, 0.010, 0.04, 0.160, 0.640, 2.56, or 10.2 mM of GlySar was measured (FIG. 6). […]
To confirm that H^+-dependent GlySar uptake was saturable, and therefore mediated, the uptake of GlySar from pH 6.0 and 7.4 uptake buffers containing 0.025, 0.1, 0.4, 1.6, 6.4, or 25.6 mM GlySar was evaluated (FIG. 12). […]

Molecule	inhibition of H+-independent GlySar uptake (MDCK cells)	% inhibition of H+-dependent GlySar uptake (canine PepT1 (cPepT1) [1])	% inhibition of H+-dependent GlySar uptake (canine PepT1 (cPepT1) [2])	Glysylsarcosine uptake (canine PepT1 (cPepT1) [3]; collagen-coated trays)	Glysylsarcosine uptake (canine PepT1 (cPepT1) [3]; poly-L-lysine-coated trays)	further results
N[C@@H](Cc1c[nH]c2ccccc12)C(=O)N[C@@H](Cc1c[nH]c2ccccc12)C(=O)O [TrpTrp] (H-Trp-Trp-OH; N-terminus and C-terminus assumed)	about 22%	62%	–	–	–	–
[Gly]4 (GGGG) [positive control (model) substrate]	–	–	19%	–	–	–
CC1(C)S[C@@H]2[C@H](NC(=O)Cc3ccccc3)C(=O)N2[C@H]1C(=O)O [Penicillin-G]	–	–	0%	–	–	inhibition of H+-dependent GlySar uptake (canine PepT1 (cPepT1) [2]; 3 mM Penicillin-G, 100 μM GlySar (FIG. 13)): not inhibited
CC(C)C[C@H](N)C(=O)O [Leucine]	–	–	neither Leu nor Trp significantly influenced	63.0 ± 4.00 pmol 30 min^−1 mg^−1 protein	41.93 ± 2.70 pmol 30 min^−1 mg^−1 protein	–
N[C@@H](Cc1c[nH]c2ccccc12)C(=O)O [Trp, tryptophan]	–	–	neither Leu nor Trp significantly influenced	–	–	–
CC(C)C[C@H](N)C(=O)N[C@@H](Cc1c[nH]c2ccccc12)C(=O)O [LeuTrp]	46%	58%	113%	7.68 ± 1.37 pmol 30 min^−1 mg^−1 protein	5.50 ± 0.58 pmol 30 min^−1 mg^−1 protein	inhibition of H+-dependent uptake of GlySar (canine PepT1 (cPepT1) [3]; cells grown on collagen): 88%; inhibition of H+-dependent uptake of GlySar (canine PepT1 (cPepT1) [3]; cells grown on poly-lysine): 87%; % inhibition of pH 6.0 uptake (canine PepT1 (cPepT1) [3]; collagen-coated trays): 11.7%; % inhibition of pH 6.0 uptake (canine PepT1 (cPepT1) [3]; poly-L-lysine-coated trays): 13.0%
NCC(=O)O [Gly]	–	–	5.0%	–	–	–
MetGlyMetMet (MGMM; OTHER INFORMATION: tetrapeptide)	–	–	50%	–	–	–
CC(C)C[C@H](NC(=O)[C@@H](N)Cc1c[nH]c2ccccc12)C(=O)O [TrpLeu] (H-Trp-Leu-OH; N-terminus and C-terminus assumed)	36%	92% and 94%	117% and 116%	5.21 ± 0.39 pmol 30 min^−1 mg^−1 protein	3.44 ± 0.27 pmol 30 min^−1 mg^−1 protein	inhibition of H+-dependent uptake of GlySar (canine PepT1 (cPepT1) [3]; cells grown on collagen): 92%; inhibition of H+-dependent uptake of GlySar (canine PepT1 (cPepT1) [3]; cells grown on poly-lysine): 92%; % inhibition of pH 6.0 uptake (canine PepT1 (cPepT1) [3]; collagen-coated trays): 8.0%; % inhibition of pH 6.0 uptake (canine PepT1 (cPepT1) [3]; poly-L-lysine-coated trays): 8.1%
canine PepT1 (cPepT1) (Canis lupus familiaris) (protein, endogenous in cells; host or cells: MDCK (Madin-Darby Canine Kidney) cells, whole-cell [3H]-GlySar uptake) MGMSKSYGCFGYPLSIFFIVVNEFCERFSYYGMRALLILYFRRFIGWDDNLSTAIYHTFVALCYLTPILGALIADSWLGKFKTIVSLSIVYTIGQAVTAVSSINDLTDYNKDGTPDNLSVHVALSMIGLALIALGTGGIKPCVSAFGGDQFEEGQEKQRNRFFSIFYLAINAGSLISTIVTPMLRVHECGIYSQKACYPLAFGVPAALMAVSLIVFVIGSGMYKKFQPQGNVMGKVVKCIGFALKNRFRHRSKQFPKREHWLDWAKEKYDERLISQIKMVTKVMFLYIPLPMFWALFDQQGSRWTLQATAMSGKIGLLEVQPDQMQTVNAILIVVMVPIMDAVVYPLIAKCGFNFTSLKRMTVGMFLASMAFVMAAIVQLEIDKTLPVFPKQNEVQIKVLNIGNGAMNVSFPGAVVTVSQMSQSDGFMTFDVDKLTSINISSTGSPVIPVTYNFEQGHRHTLLVWAPNNYRVVKDGLNQKPEKGENGIRFINSLNESLNITMGDKVYVNVTSHNASEYQFFSLGTKNITISSTQQISQNCTKVLQSSNLEFGSAYTYVIGTQSTGCPELHMFEDISPNTVNMALQIPQYFLITCGEVVFSVTGLEFSYSQAPSNMKSVLQAGWLLTVAVGNIIVLIVAGAGQFSEQWAEYILFAALLLVVCVIFAIMARFYTYVNPAEIEAQFDDDEKKNLEKMNVYSTVTPVSQTQM	–	–	–	–	–	Km ([4]; other: MDCK cells seeded at 60K/well grown in LHM (FIG. 12)): 1100 µM and 1000 µM; Km ([4]; other: MDCK cells, only pH 6.0 uptake buffer, pH 6.0): 1100 µM; Km ([4]; other: confluent MDCK cells, pH 6.0 media, graphical evaluation (FIG. 6), pH 6.0): 4000 µM
